Measurements published in PubChem BioAssay (NCI).
“And” between values parts separate entries of the source, which are not always exact repeats. Identical values can stand only once.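 96-well plates; 48 h exposure; 5 concentrations. Endpoints by linear interpolation between flanking doses. Not reached: highest tested concentration assigned. GI50: concentration for 50% inhibition of growth. TGI: concentration producing complete growth inhibition.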

Key:
Assay in all cases: NCI-60 cell line screen, 48 h
M14 melanoma = test system: M14 melanoma
T-47D breast = test system: T-47D breast
COLO 205 colon = test system: COLO 205 colon
UACC-62 melanoma = test system: UACC-62 melanoma
CCRF-CEM leukemia = test system: CCRF-CEM leukemia
SK-OV-3 ovarian = test system: SK-OV-3 ovarian
786-0 renal = test system: 786-0 renal
TK-10 renal = test system: TK-10 renal
K-562 leukemia = test system: K-562 leukemia
HCC-2998 colon = test system: HCC-2998 colon

Structure (SMILES)	TGI (M14 melanoma)	TGI (T-47D breast) [µM]	TGI (COLO 205 colon)	TGI (UACC-62 melanoma)	TGI (CCRF-CEM leukemia) [µM]	TGI (SK-OV-3 ovarian) [µM]	TGI (786-0 renal)	TGI (TK-10 renal)	TGI (K-562 leukemia)	TGI (HCC-2998 colon)	GI50 (UACC-62 melanoma) [µM]	GI50 (CCRF-CEM leukemia) [µM]	GI50 (K-562 leukemia) [µM]	GI50 (COLO 205 colon) [µM]	GI50 (SK-OV-3 ovarian) [µM]	GI50 (TK-10 renal) [µM]	GI50 (HCC-2998 colon) [µM]
O=C1C(c2c(O)[nH]c3ccc(I)cc23)=Nc2ccccc21	> 100 µM	> 100	> 100 µM	21.3 µM	> 100	22.8	4.39 µM	17.9 µM	> 100 µM	> 22.9 µM							
COc1cc(/C=C/c2ccc(S(N)(=O)=O)cc2)cc(OC)c1	> 100 µM	41.6	32.4 µM	30.3 µM	52.3	75.7	50.5 µM	53.9 µM	76.7 µM	38.1 µM	15.4	19.9	28.7				
Cc1cc(N)c2cc(NC(=O)Nc3ccc4nc(C)cc(N)c4c3)ccc2n1	> 100 µM	> 100	> 100 µM	> 100 µM	> 100	> 100	> 100 µM	> 100 µM	> 100 µM	> 100 µM							
CC(=O)N1CCN(CCCCN2c3ccccc3Sc3cc(N=[N+]=[N-])ccc32)CC1		15.2	29.7 µM	9.21 µM	33.2		29.5 µM	31.3 µM	31.3 µM	28.5 µM							
O=C1CCc2ccccc2O1		> 100	> 100 µM	> 100 µM	> 100	> 100	> 100 µM	> 100 µM	> 100 µM	> 100 µM							
CC(C)(CO)NC(=O)c1cccs1	> 100 µM	> 100	> 100 µM	> 100 µM	> 100	> 100	> 100 µM	> 100 µM	> 100 µM	> 100 µM							
CC1=C(C(=O)NCCCN(CCO)CCO)CC(C(=O)NCCCN(CCO)CCO)=C(C)N1	> 100 µM	> 100	> 100 µM	> 100 µM	77.9	> 100	> 100 µM	> 100 µM	> 100 µM	> 100 µM							
CCOC(=O)C(NC(=O)c1ccccc1)(Nc1ccc(S(=O)(=O)Nc2ccc(OC)nn2)cc1)C(F)(F)F (centres undefined)	> 100 µM	> 100	> 100 µM	> 100 µM	> 100	> 100	> 100 µM	> 100 µM	> 100 µM	> 100 µM							
CC1(C)OC2[C@@H](CO[C@@]3([C@H]4OC(C)(C)O[C@@H]4CO)OC(C)(C)O[C@@H]23)O1 (some centres undefined)	> 100 µM	> 100	> 100 µM	> 100 µM	> 100	> 100	> 100 µM	> 100 µM	> 100 µM	> 100 µM							
CCOC(=O)c1cc([N+](=O)[O-])cc([N+](=O)[O-])c1Sc1ncnc2nc[nH]c12	2.66 µM	3.34	5.03 µM	21.3 µM	6.84	23.3	2.07 µM	9.55 µM	> 100 µM	30.2 µM							
N#CCN1CCCN(CC#N)CCN(CC#N)CCCN(CC#N)CC1	> 100 µM	> 100	> 100 µM	> 100 µM	> 100	> 100	> 100 µM	> 100 µM	> 100 µM	> 100 µM							
CCSc1[nH]c(NC(=NC(C)C)NC(=O)c2ccccc2)c(C(N)=O)c1C(N)=O	> 10 µM	> 10	> 10 µM	> 10 µM	> 10	> 10	> 10 µM	> 10 µM	> 10 µM	> 10 µM							
O=C1C=CC(=O)[C@H]2C3C=CC(C4C3C3(Cl)C(Cl)=C(Cl)[C@]4(Cl)C3(Cl)Cl)[C@@H]12 (some centres undefined)	16 µM	23.2	19.1 µM	21 µM	16.2	27.3	18.4 µM	30.5 µM	20.4 µM								
c1ccc(Sc2nc(Sc3ccccc3)nc(Sc3ccccc3)n2)cc1	> 100 µM	45	38.7 µM	> 100 µM	> 100	> 100		> 100 µM	> 100 µM	37.8 µM							
O=C1C(=O)N(C23CC4CC(CC(C4)C2)C3)C(=S)N1c1ccccc1		> 100	> 100 µM	> 100 µM	> 100	> 100	> 100 µM	> 100 µM	> 100 µM	> 100 µM							
NC(CS)C(=O)NCCNc1ccc(NCCNC(=O)C(N)CS)c2c1C(=O)c1c(O)ccc(O)c1C2=O (centres undefined)	1.28 µM and 1.1 µM	1.45	1.83 µM and 1.12 µM	0.516 µM and 0.249 µM	0.517		0.0831 µM and 0.0438 µM	3.58 µM and 0.49 µM	0.614 µM and 0.145 µM	1.13 µM and 0.822 µM	0.0196		0.0192	0.136	0.0165	0.08	0.196
O=[N+]([O-])c1ccc2c(N=Nc3ccc4ccccc4c3O)c(O)cc(S(=O)(=O)O)c2c1	32.4 µM	> 100	> 82.9 µM	71.9 µM	22	> 100	> 81.1 µM	> 100 µM	> 95.1 µM	> 100 µM							
CCOC(=O)C1=C(C)N(c2ccc(Cl)cc2)C2(O)C=CC(Nc3ccc(Cl)cc3)=C3C(=O)N(c4ccccc4)C(=O)C312 (centres undefined)	19.7 µM	19.4	7.2 µM	7.15 µM	8.39	24.9		52.1 µM	> 100 µM								
NCCN(CCN)/[N+]([O-])=N/O	> 100 µM	> 100	> 100 µM	> 100 µM	> 100	> 100	> 100 µM	> 100 µM	> 100 µM	> 100 µM							
CCOC(=O)CCC(C(=O)OCC)n1nnc2ccc(Nc3c(C)[n+]([O-])c4cc(F)c(OCC)cc4[n+]3[O-])cc21 (centres undefined)	> 100 µM	> 100	83.5 µM	43.1 µM	> 100	> 100	> 100 µM	> 100 µM	> 100 µM								
N#CC(C#N)C1CN2CCC1CC2 (centres undefined)	> 100 µM	> 100	> 100 µM	> 100 µM	> 100	> 100	> 100 µM	> 100 µM	> 100 µM	> 100 µM							
